Among the test systems are NCI-H23 lung; PC-3 prostate; MOLT-4 leukemia; HT29 colon; COLO 205 colon; HCT-15 colon; BT-549 breast; SNB-75 CNS; EKVX NSCLC; NCI-H522 lung; HL-60(TB) leukemia.
Holding throughout (test): inhibition of tumour cell growth, NCI panel, 48 h

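Five concentrations, 48 hours, 96-well plates. At the GI50, growth is halved. TGI marks complete inhibition of growth.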

Turning to `CCc1nn(S(=O)(=O)c2ccc(C)cc2)c2c1CS(=O)(=O)CC2`, the TGI with NCI-H23 lung, with PC-3 prostate, with MOLT-4 leukemia, in the assay with HT29 colon, in the assay on COLO 205 colon and with HCT-15 colon was > 100 µM throughout. The TGI with BT-549 breast, in the assay with SNB-75 CNS and in the assay on EKVX NSCLC was > 100 µM throughout.
Consider `O=C1O[C@H](C(Cl)(Cl)Cl)N2CCCC12` (some centres undefined), for which the TGI in the assay on NCI-H522 lung, in the assay on NCI-H23 lung, in the assay with MOLT-4 leukemia, in the assay on HT29 colon, in the assay on HL-60(TB) leukemia and in the assay on COLO 205 colon was > 100 µM throughout. For the same compound, the TGI in the assay on HCT-15 colon, with SNB-75 CNS and with EKVX NSCLC was > 100 µM in each case.
With `N/N=C1/C(=N/O)CCc2nonc21`, the TGI in the assay on NCI-H23 lung, in the assay with PC-3 prostate, in the assay with MOLT-4 leukemia, with HT29 colon, in the assay with HL-60(TB) leukemia and in the assay with COLO 205 colon was > 100 µM throughout. Further, the TGI with HCT-15 colon, with SNB-75 CNS and in the assay on EKVX NSCLC was > 100 µM throughout.
On to `CC(NC(=O)OCc1ccccc1)NC(=O)C(CC(=O)OC(C)(C)C)NC(=O)OC(C)(C)C` (centres undefined), for which the TGI in the assay with NCI-H522 lung, with NCI-H23 lung, in the assay with PC-3 prostate, in the assay with MOLT-4 leukemia, with HT29 colon and in the assay on COLO 205 colon was > 100 µM throughout. The TGI with HCT-15 colon, in the assay on BT-549 breast, in the assay on SNB-75 CNS and with EKVX NSCLC was > 100 µM each time.
Take `COc1ccccc1NC(=S)N/N=C(/C)c1ccccn1`: the TGI is > 100 µM in the assay on NCI-H522 lung; > 100 µM in the assay with NCI-H23 lung; > 100 µM with PC-3 prostate; > 100 µM in the assay with MOLT-4 leukemia; > 100 µM with HT29 colon; 2.08 µM with HL-60(TB) leukemia. In addition, the TGI in the assay with HCT-15 colon is > 100 µM; with SNB-75 CNS, 49.2 µM; in the assay with EKVX NSCLC it was > 100 µM.
Turning to `CCOC(=O)c1c2c(n(-c3ccc(OC)cc3)c1C)C(=O)C(=O)c1ccccc1-2`, the TGI with NCI-H522 lung is > 20.4 µM; in the assay on NCI-H23 lung, 3.24 µM; in the assay with PC-3 prostate it was 5.7 µM; in the assay with MOLT-4 leukemia it was > 100 µM; in the assay with HT29 colon, > 22.7 µM; with COLO 205 colon it was 5.31 µM. Moreover, the TGI worked out at 8.13 µM in the assay on HCT-15 colon, 4.32 µM in the assay on BT-549 breast, 4.09 µM in the assay on SNB-75 CNS and 4.09 µM in the assay with EKVX NSCLC. Besides, the GI50 in the assay on MOLT-4 leukemia was 1.66 µM.
As to `OCC(O)C1OC2CC1Nc1ccccc1N2` (centres undefined), the TGI with NCI-H522 lung, in the assay on NCI-H23 lung, with PC-3 prostate, in the assay with MOLT-4 leukemia, in the assay on HT29 colon and with HL-60(TB) leukemia was > 100 µM in each case. Also, the TGI in the assay with COLO 205 colon, with HCT-15 colon, in the assay on SNB-75 CNS and in the assay with EKVX NSCLC was > 100 µM each time.
As to `O=C(CN1CCCCC1)c1ccc2c(c1)Sc1ccccc1O2`, the TGI with NCI-H23 lung was 27.9 µM; with PC-3 prostate, 24.4 µM; in the assay on MOLT-4 leukemia it was > 100 µM; with HT29 colon, 23.7 µM; in the assay with HL-60(TB) leukemia it was 58.1 µM; with COLO 205 colon, 61.1 µM. Also, the TGI with HCT-15 colon amounted to 24.6 µM; with SNB-75 CNS it was 24.2 µM; in the assay with EKVX NSCLC, 36.1 µM.
Consider `CCOC(=O)C(=O)C1C(=O)Nc2ccccc21` (centres undefined), for which the TGI in the assay on NCI-H23 lung, with MOLT-4 leukemia, in the assay on HT29 colon, in the assay on HL-60(TB) leukemia, with COLO 205 colon and with SNB-75 CNS was > 100 µM in each case. The TGI in the assay with EKVX NSCLC was > 100 µM.
Consider `CCOC(=O)/C(C#N)=C/c1ccc(CO)o1`, for which the TGI with NCI-H522 lung, in the assay with NCI-H23 lung, with PC-3 prostate, in the assay on MOLT-4 leukemia, with HT29 colon and with COLO 205 colon was > 100 µM in each case. The TGI with HCT-15 colon, with SNB-75 CNS and with EKVX NSCLC was > 100 µM in each case.
Take `COc1ccc(Oc2nc3ccc(C(F)(F)F)cc3nc2-c2ccccc2)cc1`: the TGI in the assay on NCI-H522 lung, in the assay on PC-3 prostate, in the assay on MOLT-4 leukemia, with HT29 colon, in the assay on HL-60(TB) leukemia and in the assay on COLO 205 colon was > 100 µM in each case. The TGI with HCT-15 colon and in the assay on EKVX NSCLC was > 100 µM throughout.
In the case of `CCNC(=O)/C=C/CCC#Cc1ccc(-c2ccc(-c3cccs3)s2)s1`, the TGI with NCI-H522 lung was > 100 µM; in the assay on NCI-H23 lung, > 100 µM; in the assay with MOLT-4 leukemia, > 100 µM; in the assay with HT29 colon it was > 100 µM; in the assay on HL-60(TB) leukemia, > 100 µM; with COLO 205 colon, 3.19 µM. The TGI in the assay with HCT-15 colon, in the assay on SNB-75 CNS and in the assay with EKVX NSCLC was > 100 µM each time.
As for `CN1C/C(=C\c2ccc(Cl)cc2)C(=O)/C(=C/c2ccc(Cl)cc2)C1`, the TGI was > 22.3 µM with NCI-H23 lung; > 100 µM in the assay with PC-3 prostate; 0.824 µM in the assay with HT29 colon; 5.62 µM with COLO 205 colon; > 100 µM in the assay with SNB-75 CNS; > 90.6 µM with EKVX NSCLC.
For the compound `NS(=O)(=O)c1ccc(Nc2c3ccccc3nc3c(C(=O)NCCCN(CCO)CCO)cccc23)cc1`, the TGI is 44.1 µM in the assay on NCI-H522 lung; 53.8 µM with NCI-H23 lung; > 100 µM in the assay with PC-3 prostate; 99 µM in the assay with MOLT-4 leukemia; 77 µM in the assay on HT29 colon; 30.2 µM with COLO 205 colon. Further, the TGI with HCT-15 colon is > 100 µM; with BT-549 breast, 52.7 µM; with EKVX NSCLC, > 100 µM.
For the compound `O=C(OCCN1CCCCC1)C(c1ccccc1)C1(O)CCSCC1` (centres undefined), the TGI with NCI-H522 lung, with NCI-H23 lung, with PC-3 prostate, in the assay with MOLT-4 leukemia, in the assay on HT29 colon and in the assay on HL-60(TB) leukemia was > 100 µM each time. Further, the TGI with COLO 205 colon, with HCT-15 colon, in the assay on SNB-75 CNS and with EKVX NSCLC was > 100 µM each time.

Values taken from PubChem BioAssay (NCI).
